# Data from ChEMBL document CHEMBL2424636, “Synthesis and anticancer activity evaluation of new 1,2,3-triazole-4-carboxamide derivatives” (2013).
# Columns and labels:
# Assay type in all cases: functional
# MDA-MB-231 = assay: Cytotoxicity against human MDA-MB-231/ATCC cells after 48 hrs by SRB assay; settings: MDA-MB-231, 48 h
# Hs-578T = assay: Cytotoxicity against human Hs578T cells after 48 hrs by SRB assay
# TK-10 = assay: Cytotoxicity against human TK10 cells after 48 hrs by SRB assay; settings: TK-10, 48 h
# RXF 393 [1] = assay: Cytotoxicity against human RXF393 cells after 48 hrs by SRB assay; settings: RXF 393, 48 h
# SK-OV-3 = assay: Cytotoxicity against human SKOV3 cells after 48 hrs by SRB assay; settings: SK-OV-3, 48 h
# OVCAR-4 = assay: Cytotoxicity against human OVCAR4 cells after 48 hrs by SRB assay; settings: OVCAR-4, 48 h
# Malme-3M = assay: Cytotoxicity against human MALME-3M cells after 48 hrs by SRB assay
# U-251 [2] = assay: Cytotoxicity against human U251 cells after 48 hrs by SRB assay; settings: U-251, 48 h
# SNB-75 [3] = assay: Cytotoxicity against human SNB75 cells after 48 hrs by SRB assay; settings: SNB-75, 48 h
# SF-539 = assay: Cytotoxicity against human SF539 cells after 48 hrs by SRB assay; settings: SF-539, 48 h
# SF-295 = assay: Cytotoxicity against human SF295 cells after 48 hrs by SRB assay; settings: SF-295, 48 h
# SF-268 [4] = assay: Cytotoxicity against human SF268 cells after 48 hrs by SRB assay; settings: SF-268, 48 h
# HOP-92 [5] = assay: Cytotoxicity against human HOP92 cells after 48 hrs by SRB assay; settings: HOP-92, 48 h
# SR = assay: Cytotoxicity against human SR cells after 48 hrs by SRB assay
# K562 [6] = assay: Cytotoxicity against human K562 cells after 48 hrs by SRB assay; settings: K562, 48 h
# UO-31 = assay: Cytotoxicity against human UO31 cells assessed as cell growth at 10^-5 M after 48 hrs by SRB assay; settings: UO-31, 48 h, read-out: Activity
# RXF 393 [7] = assay: Cytotoxicity against human RXF393 cells assessed as cell growth at 10^-5 M after 48 hrs by SRB assay; settings: RXF 393, 48 h, read-out: Activity
# 786-0 = assay: Cytotoxicity against human 786-0 cells assessed as cell growth at 10^-5 M after 48 hrs by SRB assay; settings: 786-0, 48 h, read-out: Activity
# SNB-75 [8] = assay: Cytotoxicity against human SNB75 cells assessed as cell growth at 10^-5 M after 48 hrs by SRB assay; settings: SNB-75, 48 h, read-out: Activity
# HOP-92 [9] = assay: Cytotoxicity against human HOP92 cells assessed as cell growth at 10^-5 M after 48 hrs by SRB assay; settings: HOP-92, 48 h, read-out: Activity
# MDA-MB-468 = assay: Cytotoxicity against human MDA-MB-468 cells assessed as cell growth at 10^-5 M after 48 hrs by SRB assay; settings: MDA-MB-468, 48 h, read-out: Activity
# A498 = assay: Cytotoxicity against human A498 cells assessed as cell growth at 10^-5 M after 48 hrs by SRB assay; settings: A498, 48 h, read-out: Activity
# UACC-62 = assay: Cytotoxicity against human UACC62 cells assessed as cell growth at 10^-5 M after 48 hrs by SRB assay; settings: UACC-62, 48 h, read-out: Activity
# RPMI-8226 = assay: Cytotoxicity against human RPMI8226 cells assessed as cell growth at 10^-5 M after 48 hrs by SRB assay; settings: RPMI-8226, 48 h, read-out: Activity
# NCI-H522 = assay: Cytotoxicity against human NCI-H522 cells assessed as cell growth at 10^-5 M after 48 hrs by SRB assay; settings: NCI-H522, 48 h, read-out: Activity
# PC-3 = assay: Cytotoxicity against human PC3 cells assessed as cell growth at 10^-5 M after 48 hrs by SRB assay; settings: PC-3, 48 h, read-out: Activity
# HOP-62 = assay: Cytotoxicity against human HOP62 cells assessed as cell growth at 10^-5 M after 48 hrs by SRB assay; settings: HOP-62, 48 h, read-out: Activity
# MCF7 = assay: Cytotoxicity against human MCF7 cells assessed as cell growth at 10^-5 M after 48 hrs by SRB assay; settings: MCF7, 48 h, read-out: Activity
# OVCAR-8 = assay: Cytotoxicity against human OVCAR8 cells assessed as cell growth at 10^-5 M after 48 hrs by SRB assay; settings: OVCAR-8, 48 h, read-out: Activity
# U-251 [10] = assay: Cytotoxicity against human U251 cells assessed as cell growth at 10^-5 M after 48 hrs by SRB assay; settings: U-251, 48 h, read-out: Activity
# SF-268 [11] = assay: Cytotoxicity against human SF268 cells assessed as cell growth at 10^-5 M after 48 hrs by SRB assay; settings: SF-268, 48 h, read-out: Activity
# CAKI-1 = assay: Cytotoxicity against human Caki1 cells assessed as cell growth at 10^-5 M after 48 hrs by SRB assay; settings: CAKI-1, 48 h, read-out: Activity
# A549 = assay: Cytotoxicity against human A549/ATCC cells assessed as cell growth at 10^-5 M after 48 hrs by SRB assay; settings: A549, 48 h, read-out: Activity
# K562 [12] = assay: Cytotoxicity against human K562 cells assessed as cell growth at 10^-5 M after 48 hrs by SRB assay; settings: K562, 48 h, read-out: Activity
# [13] = Cytotoxicity against human EKVX cells assessed as cell growth at 10^-5 M after 48 hrs by SRB assay; settings: read-out: Activity
# CCRF-CEM = assay: Cytotoxicity against human CCRF-CEM cells assessed as cell growth at 10^-5 M after 48 hrs by SRB assay; settings: read-out: Activity
# SK-MEL-5 = assay: Cytotoxicity against human SK-MEL-5 cells assessed as cell growth at 10^-5 M after 48 hrs by SRB assay; settings: SK-MEL-5, 48 h, read-out: Activity
smiles,measurement,setting,value
Cc1ccc(-n2nnc(C(=O)Nc3cc(Cl)ccc3Cl)c2N)cc1,GI50,MDA-MB-231,6.17 µM
same,TGI,MDA-MB-231; read-out: pTGI,> 100 µM
same,GI50,Hs-578T,4.47 µM
same,TGI,Hs-578T; read-out: pTGI,> 100 µM
same,GI50,TK-10,5.89 µM
same,TGI,TK-10; read-out: pTGI,> 100 µM
same,GI50,RXF 393 [1],3.47 µM
same,TGI,RXF 393 [1]; read-out: pTGI (converted),50.1 µM
same,GI50,SK-OV-3,2.82 µM
same,TGI,SK-OV-3; read-out: pTGI,> 100 µM
same,GI50,OVCAR-4,1.62 µM
same,TGI,OVCAR-4; read-out: pTGI,> 100 µM
same,GI50,Malme-3M,2.45 µM
same,TGI,Malme-3M; read-out: pTGI,> 100 µM
same,GI50,U-251 [2],6.03 µM
same,TGI,U-251 [2]; read-out: pTGI,> 100 µM
same,GI50,SNB-75 [3],1.38 µM
same,TGI,SNB-75 [3]; read-out: pTGI (converted),6.03 µM
same,GI50,SF-539,4.27 µM
same,TGI,SF-539; read-out: pTGI,> 100 µM
same,GI50,SF-295,5.01 µM
same,TGI,SF-295; read-out: pTGI,> 100 µM
same,GI50,SF-268 [4],5.5 µM
same,TGI,SF-268 [4]; read-out: pTGI,> 100 µM
same,GI50,HOP-92 [5],0.589 µM
same,TGI,HOP-92 [5]; read-out: pTGI (converted),5.89 µM
same,GI50,SR,2.51 µM
same,TGI,SR; read-out: pTGI (converted),60.3 µM
same,GI50,K562 [6],7.76 µM
same,TGI,K562 [6]; read-out: pTGI,> 100 µM
same,growth at 10 µM,UO-31,-7.62%
same,growth at 10 µM,RXF 393 [7],-13.4%
same,growth at 10 µM,786-0,2.96%
same,growth at 10 µM,SNB-75 [8],1.32%
same,growth at 10 µM,HOP-92 [9],-3.42%
Cc1c(C(=O)NCc2ccco2)nnn1-c1ccc2noc(-c3ccc(Cl)cc3)c2c1,growth at 10 µM,MDA-MB-468,68%
same,growth at 10 µM,UO-31,52%
same,growth at 10 µM,A498,56.2%
same,growth at 10 µM,UACC-62,64.2%
same,growth at 10 µM,RPMI-8226,65.3%
Nc1c(C(=O)NC2CCCC2)nnn1-c1cccc(C(F)(F)F)c1,growth at 10 µM,A498,89.1%
same,growth at 10 µM,NCI-H522,87%
CCc1c(C(=O)Nc2ccccc2Cl)nnn1-c1ccc2noc(-c3ccccc3)c2c1,growth at 10 µM,PC-3,60.6%
same,growth at 10 µM,HOP-92 [9],58.4%
same,growth at 10 µM,HOP-62,74.2%
same,growth at 10 µM,RPMI-8226,76.2%
Nc1c(C(=O)c2c[nH]c3ccccc23)nnn1-c1ccccc1,growth at 10 µM,MDA-MB-468,78.5%
same,growth at 10 µM,MCF7,73.7%
COc1ccccc1-n1nnc(C(=O)Nc2ncc(Cc3ccccc3)s2)c1C,growth at 10 µM,UO-31,73.3%
same,growth at 10 µM,OVCAR-8,68%
same,growth at 10 µM,U-251 [10],75.6%
same,growth at 10 µM,SNB-75 [8],53.9%
same,growth at 10 µM,SF-268 [11],75.5%
same,growth at 10 µM,HOP-62,54.8%
COc1ccc(NC(=O)c2nnn(-c3ccc(C)cc3)c2N)cc1,growth at 10 µM,PC-3,74.3%
same,growth at 10 µM,HOP-92 [9],69.4%
Cc1c(C(=O)Nc2ncc(Cc3ccccc3)s2)nnn1-c1ccccc1,growth at 10 µM,CAKI-1,80%
same,growth at 10 µM,A549,80.3%
Cc1c(C(=O)Nc2cccc(C(F)(F)F)c2)nnn1-c1ccc2noc(-c3ccccc3)c2c1,growth at 10 µM,UO-31,78.5%
same,growth at 10 µM,K562 [12],89.8%
Cc1ccc(-n2nnc(C(=O)Nc3ncc(Cc4cccc(Cl)c4)s3)c2C)cc1,growth at 10 µM,UO-31,70.8%
same,growth at 10 µM,UACC-62,76.6%
same,growth at 10 µM,[13],74.9%
same,growth at 10 µM,RPMI-8226,62.7%
same,growth at 10 µM,CCRF-CEM,63.3%
CCc1ccc(NC(=O)c2nnn(-c3ccc(OC)cc3)c2N)cc1,growth at 10 µM,MDA-MB-468,62.6%
same,growth at 10 µM,SK-MEL-5,56.3%
same,growth at 10 µM,RPMI-8226,60.9%
